Reference: PubChem BioAssay (NCI)
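Test compounds were applied to cells in 96-well plates for 48 hours at 5 doses. Here, GI50 denotes the concentration required for 50% inhibition of growth. The concentration for full growth arrest is given as TGI.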 Where a SMILES comes first, the peptide text is derived from it. Bridges are numbered along the chain shown (N, C = ends). Roman numbers before positions name the chains, in order. [ ]: non-standard residue; d: D form. The star is where a group is joined. Heptadecanoyl = CCCCCCCCCCCCCCCCC(=O)*; Phg = N[CH](C(=O)O)c1ccccc1

What was measured:
Assay in all cases: DTP human tumour cell line panel, 48 h
NCI-H23 lung = system: NCI-H23 lung
EKVX NSCLC = system: EKVX NSCLC
OVCAR-3 ovarian = system: OVCAR-3 ovarian
OVCAR-5 ovarian = system: OVCAR-5 ovarian
HCT-15 colon = system: HCT-15 colon
MOLT-4 leukemia = system: MOLT-4 leukemia
UO-31 renal = system: UO-31 renal
SK-OV-3 ovarian = system: SK-OV-3 ovarian
HS 578T breast = system: HS 578T breast
MALME-3M melanoma = system: MALME-3M melanoma

Compound	TGI (NCI-H23 lung) [µM]	TGI (EKVX NSCLC) [µM]	TGI (OVCAR-3 ovarian) [µM]	TGI (OVCAR-5 ovarian) [µM]	TGI (HCT-15 colon) [µM]	TGI (MOLT-4 leukemia) [µM]	TGI (UO-31 renal) [µM]	TGI (SK-OV-3 ovarian) [µM]	GI50 (HS 578T breast) [µM]	TGI (HS 578T breast) [µM]	GI50 (NCI-H23 lung) [µM]	GI50 (EKVX NSCLC) [µM]	GI50 (OVCAR-3 ovarian) [µM]	GI50 (OVCAR-5 ovarian) [µM]	GI50 (MOLT-4 leukemia) [µM]	GI50 (UO-31 renal) [µM]	GI50 (SK-OV-3 ovarian) [µM]	TGI (MALME-3M melanoma) [µM]	GI50 (HCT-15 colon) [µM]	GI50 (MALME-3M melanoma) [µM]
CCOC(=O)c1cc(Cl)ccc1OC(N)=O	> 100	> 100	> 100	> 100	> 100	> 100	> 100	> 100												
CCCCCCCCCCCCCCCCC(=O)N1CCCC1C(=O)NCC(=O)NC(C(=O)N1CCCC1C(=O)NC(CO)C(=O)NC(Cc1ccc(O)cc1)C(=O)NC(CCCCNC(=O)C1CCCN1C(=O)C(CCCCN)NC(=O)C(CCCCN)NC(=O)C(CCCCN)NC(=O)C(CCCNC(=N)N)NC(=O)C(CCCCN)NC(=O)C(N)C(C)C)C(=O)NC(CC(C)C)C(=O)NC(CCCNC(=N)N)C(=O)N1CCCC1C(=O)NCC(N)=O)c1ccccc1 (stereo unspecified) (I: Heptadecanoyl-PG[Phg]PSYKLRPG-NH2 / II: H-VKRKKKP; amide I:7-II:C; configuration not given here)	> 100	84.4	71.2	> 100		44.8	> 100	51.4	> 100	> 100	31.5	27.7	27	34.3	16.3	32.4	23.1			
Nc1nc(Cl)nc2c1ncn2C1CCC(CO)O1 (stereo unspecified)	> 100		> 100	> 100	> 100	> 100	> 100	> 100		> 100								> 100		
N#CC(C#N)=Cc1ccc(-c2ccc(-c3nc4ccccc4s3)cc2)s1	52.9	> 100	34.8	30.5	40	68.5	30.2	50.5			18.1	29.6	14.9	14	22.8	13.9	19.7	54.5	15.5	16.6
C(=N/Nc1ccccn1)/c1cccnc1	> 100	> 100	> 100	> 100	> 100	> 100	> 100	> 100		> 100								> 100		
CN(C)C(=S)SCc1ccccc1	> 100	> 100	> 100	> 100	> 100		> 100	> 100		> 100								> 100		
C/C(=C\c1ccc2c(c1)OCO2)[N+](=O)[O-]	7.54	16.4		15.1	5.21	1.13				45.8								5.68		
Cc1cccc(C(O)c2ccccn2)c1O (stereo unspecified)	> 100	> 100	> 100	> 100	> 100	> 100	> 100			> 100								> 100		
